Here are results for 26 compounds from patent publication US8653100B2 (AbbVie Inc., priority 2008, dated 2014).

Structures are written as SMILES. Structures can show the parent of a compound that is named as a salt.

human GlyT1c transporter, sequence (P48067 whole entry): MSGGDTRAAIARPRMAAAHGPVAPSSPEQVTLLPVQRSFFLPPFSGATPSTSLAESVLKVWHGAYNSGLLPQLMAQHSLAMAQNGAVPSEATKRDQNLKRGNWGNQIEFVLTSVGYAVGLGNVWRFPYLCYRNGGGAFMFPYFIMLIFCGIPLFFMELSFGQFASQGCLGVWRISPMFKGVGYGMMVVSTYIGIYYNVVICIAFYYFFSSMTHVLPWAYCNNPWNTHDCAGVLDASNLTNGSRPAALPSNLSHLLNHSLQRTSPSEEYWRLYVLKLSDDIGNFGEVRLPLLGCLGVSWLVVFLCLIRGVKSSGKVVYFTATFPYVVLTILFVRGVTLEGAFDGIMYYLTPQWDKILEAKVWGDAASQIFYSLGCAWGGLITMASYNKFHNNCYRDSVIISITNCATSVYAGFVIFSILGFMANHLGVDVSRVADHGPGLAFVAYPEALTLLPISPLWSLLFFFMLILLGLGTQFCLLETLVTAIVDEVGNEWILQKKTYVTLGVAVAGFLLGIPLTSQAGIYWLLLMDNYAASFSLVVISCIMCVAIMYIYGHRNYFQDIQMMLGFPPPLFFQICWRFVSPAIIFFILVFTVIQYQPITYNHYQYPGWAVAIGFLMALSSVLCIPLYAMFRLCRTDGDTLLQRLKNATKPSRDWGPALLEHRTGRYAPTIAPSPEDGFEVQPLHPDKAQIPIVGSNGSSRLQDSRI

The target of the assay is human GlyT1c transporter (Homo sapiens (Human), UniProt P48067). Description: Radioligand binding assay using recombinant CHO cell membranes expressing human GlyT1. To be noted: examples 88-204, radioligand not specified by footnote, read-out: radioligand binding Kiapp. The method, then: 2. Radioligand binding assays using recombinant CHO cell membranes expressing human GlyT1:
Radioligand binding to human GlyT1c transporter-expressing membranes was carried out as described in Mezler et al., Molecular Pharmacology 74:1705-1715, 2008.
More specifically, [^3H]-(R)-NPTS radioligand binding to human GlyT1c transporter-expressing membranes was measured in duplicate in a total volume of 200 μl in 96-well plates. To 100 μl of membrane suspension (yielding a final membrane protein concentration of 50 μg/ml) in assay buffer (120 mM NaCl, 2 mM KCl, 10 mM Hepes, 1 mM MgCl2, 1 mM CaCl2, pH 7.5) […] of [^3H]-(R)-NPTS (0.5 nM final) were added in assay buffer. For competition experiments 10 μl of buffer or unlabeled compound solution obtained from dilution series of test compounds in DMSO followed. An intermediate 1:10 dilution in assay buffer yielded a final DMSO concentration of 1%. Non-specific binding was determined in the presence of 10 μM Org24598 (or its racemate Org24461) for [^3H]-(R)-NPTS. After incubation at room temperature for 1 h, the incubation mixture was harvested (Tomtec Mach III U Harvester) through 96-well GF/B filter plates (PerkinElmer), presoaked for 1 h with 40 μl per well of 0.1% polyethylene-imine (PEI). After washing twice with ice-cold 50 mM Tris-HCl pH 7.4 buffer, drying and addition of 35 μl scintillator (BetaplateScint, PerkinElmer) per well followed. The radioactivity was determined by liquid scintillation spectrometry in a MicroBeta (PerkinElmer) plate counter.
Data analysis: For binding of [^3H]-(R)-NPTS to cell membranes, the calculation of Kd and Bmax values from the saturation binding assays and the IC50 values from the displacement binding was performed by iterative non-linear regression analysis adapted from the ‘Ligand’ program (Munson and Rodbard, 1980). Radioligand displacement curves in absence or in presence of increasing concentrations of tested compounds were fitted using a one-site fit and the apparent Ki values were calculated from the IC50 values using the Cheng-Prusoff equation (Cheng and Prusoff 1973).
As for `O=S(=O)(NCCOc1ccc2c(c1)C(C1(c3ccc(Cl)cc3)CCC1)NCC2)C1CCCNC1` (single isomer, unassigned) [Example 193, N-[2-({1-[1-(4-Chlorophenyl)cyclobutyl]-1,2,3,4-tetrahydroisoquinolin-7-yl}oxy)ethyl]piperidine-3-sulfonamide dihydrochloride], the Ki was at most 10000 nM. Turning to `C/C=C/S(=O)(=O)NCCOc1ccc2c(c1)C(C1(c3ccc(Cl)cc3)CCC1)NCC2` (centres unmarked) [Example 88, (1E)-N-[2-({1-[1-(4-Chlorophenyl)cyclobutyl]-1,2,3,4-tetrahydroisoquinolin-7-yl}oxy)ethyl]prop-1-ene-1-sulfonamide hydrochloride], the Ki was at most 100 nM. Under `CCCS(=O)(=O)NCCNc1ccc2c(c1)C(C1(c3ccc(Cl)cc3)CCC1)NCC2` (centres unmarked) [Example 89, N-[2-({1-[1-(4-Chlorophenyl)cyclobutyl]-1,2,3,4-tetrahydroisoquinolin-7-yl}amino)ethyl]propane-1-sulfonamide dihydrochloride] stands at most 100 nM; under `CCCS(=O)(=O)NCc1ccc2c(c1)C(C1(c3ccc(Cl)cc3)CCC1)NCC2` (centres unmarked) [Example 90, N-({1-[1-(4-Chlorophenyl)cyclobutyl]-1,2,3,4-tetrahydroisoquinolin-7-yl}methyl)propane-1-sulfonamide hydrochloride], at most 100 nM; under `Cn1cc(S(=O)(=O)NCc2ccc3c(c2)C(C2(c4ccc(Cl)cc4)CCC2)NCC3)cn1` (centres unmarked) [Example 91, N-({1-[1-(4-Chlorophenyl)cyclobutyl]-1,2,3,4-tetrahydroisoquinolin-7-yl}methyl)-1-methyl-1H-pyrazole-4-sulfonamide trifluoroacetate], at most 100 nM. Regarding `N#Cc1ccc2c(c1)C(C1(c3ccc(Cl)cc3)CCC1)NCC2` (centres unmarked) [Example 92, 1-[1-(4-Chlorophenyl)cyclobutyl]-1,2,3,4-tetrahydroisoquinoline-7-carbonitrile hydrochloride], the Ki is at most 100 nM.

As to `Cn1cnc(S(=O)(=O)NCc2ccc3c(c2)C(C2(c4ccc(Cl)cc4)CCC2)NCC3)c1` (centres unmarked) [Example 93, N-({1-[1-(4-Chlorophenyl)cyclobutyl]-1,2,3,4-tetrahydroisoquinolin-7-yl}methyl)-1-methyl-1 H-imidazole-4-sulfonamide hydrochloride], the Ki was at most 100 nM. Take `O=S(=O)(CCCF)NCc1ccc2c(c1)C(C1(c3ccc(Cl)cc3)CCC1)NCC2` (centres unmarked) [Example 94, N-({1-[1-(4-Chlorophenyl)cyclobutyl]-1,2,3,4-tetrahydroisoquinolin-7-yl}methyl)-3-fluoropropane-1-sulfonamide hydrochloride]: the Ki is at most 100 nM.

In the case of `CCCS(=O)(=O)NCc1ccc2c(c1)C(C(C)(C)c1ccc(Cl)cc1)NCC2` (centres unmarked) [Example 96, N-({1-[2-(4-Chlorophenyl)propan-2-yl]-1,2,3,4-tetrahydroisoquinolin-7-yl}methyl)propane-1-sulfonamide hydrochloride], the Ki is at most 100 nM. On to `O=S(=O)(CCO)NCCOc1ccc2c(c1)C(C1(c3ccc(Cl)cc3)CCC1)NCC2` (centres unmarked) [Example 97, N-[2-({1-[1-(4-Chlorophenyl)cyclobutyl]-1,2,3,4-tetrahydroisoquinolin-7-yl}oxy)ethyl]-2-hydroxyethanesulfonamide hydrochloride], for which the Ki was at most 100 nM.

Take `CCCS(=O)(=O)NCCOc1ccc2c(c1)C(C1(c3ccccn3)CCC1)NCC2` (centres unmarked) [Example 98, N-[2-({1-[1-(Pyridin-2-yl)cyclobutyl]-1,2,3,4-tetrahydroisoquinolin-7-yl}oxy)ethyl]propane-1-sulfonamide dihydrochloride]: the Ki was at most 100 nM. For the compound `CCCS(=O)(=O)NCC(=O)Nc1ccc2c(c1)C(C1(c3ccc(Cl)cc3)CCC1)NCC2` (centres unmarked) [Example 99, N-{1-[1-(4-Chlorophenyl)cyclobutyl]-1,2,3,4-tetrahydroisoquinolin-7-yl}-N˜2˜-(propylsulfonyl)glycinamide hydrochloride], the Ki was at most 100 nM. Regarding `Cn1cc(S(=O)(=O)NCc2ccc3c(c2)C(C(C)(C)c2ccc(Cl)cc2)NCC3)cn1` (centres unmarked) [Example 100, N-({1-[2-(4-Chlorophenyl)propan-2-yl]-1,2,3,4-tetrahydroisoquinolin-7-yl}methyl)-1-methyl-1H-pyrazole-4-sulfonamide hydrochloride], the Ki is at most 100 nM. Take `Cn1cnc(S(=O)(=O)NCc2ccc3c(c2)C(C(C)(C)c2ccc(Cl)cc2)NCC3)c1` (centres unmarked) [Example 102, N-({1-[2-(4-Chlorophenyl)propan-2-yl]-1,2,3,4-tetrahydroisoquinolin-7-yl}methyl)-1-methyl-1H-imidazole-4-sulfonamide hydrochloride]: the Ki is at most 100 nM.

For the compound `O=S(=O)(CCCF)NCCOc1ccc2c(c1)C(C1(c3ccccn3)CCC1)NCC2` (centres unmarked) [Example 104, 3-Fluoro-N-[2-({1-[1-(pyridin-2-yl)cyclobutyl]-1,2,3,4-tetrahydroisoquinolin-7-yl}oxy)ethyl]propane-1-sulfonamide hydrochloride], the Ki is at most 100 nM.

For the compound `CCCS(=O)(=O)NCCOc1ccc2c(c1)C(C1(c3cccc(Cl)n3)CCC1)NCC2` (centres unmarked) [Example 105, N-[2-({1-[1-(6-Chloropyridin-2-yl)cyclobutyl]-1,2,3,4-tetrahydroisoquinolin-7-yl}oxy)ethyl]propane-1-sulfonamide dihydrochloride], the Ki was at most 100 nM. Regarding `CC(C)(c1ccc(Cl)cc1)C1NCCc2ccc(C#N)cc21` (centres unmarked) [Example 107, 1-[2-(4-Chlorophenyl)propan-2-yl]-1,2,3,4-tetrahydroisoquinoline-7-carbonitrile hydrochloride], the Ki is at most 1000 nM.

Regarding `O=S(=O)(CCCOc1ccc2c(c1)C(C1(c3ccc(Cl)cc3)CCC1)NCC2)Nc1ccccn1` (centres unmarked) [Example 109, 3-({1-[1-(4-Chlorophenyl)cyclobutyl]-1,2,3,4-tetrahydroisoquinolin-7-yl}oxy)-N-(pyridin-2-yl)propane-1-sulfonamide dihydrochloride], the Ki was at most 1000 nM. `O=S(=O)(NCCOc1ccc2c(c1)C(C1(c3ccc(Cl)cc3)CCC1)NCC2)c1ccc(CCF)cc1` (centres unmarked) [Example 110, N-[2-({1-[1-(4-Chlorophenyl)cyclobutyl]-1,2,3,4-tetrahydroisoquinolin-7-yl}oxy)ethyl]-4-(2-fluoroethyl)benzenesulfonamide hydrochloride]: the Ki is at most 1000 nM. As to `Cn1cnc(S(=O)(=O)NCC(=O)Nc2ccc3c(c2)C(C2(c4ccc(Cl)cc4)CCC2)NCC3)c1` (centres unmarked) [Example 111, N-{1-[1-(4-Chlorophenyl)cyclobutyl]-1,2,3,4-tetrahydroisoquinolin-7-yl}-N˜2˜-[(1-methyl-1H-imidazol-4-yl)sulfonyl]glycinamide dihydrochloride], the Ki is at most 1000 nM. Regarding `Cn1cc(S(=O)(=O)NCC(=O)Nc2ccc3c(c2)C(C2(c4ccc(Cl)cc4)CCC2)NCC3)cn1` (centres unmarked) [Example 113, N-{1-[1-(4-Chlorophenyl)cyclobutyl]-1,2,3,4-tetrahydroisoquinolin-7-yl}-N˜2˜-[(1-methyl-1H-pyrazol-4-yl)sulfonyl]glycinamide hydrochloride], the Ki is at most 1000 nM.

Turning to `O=S(=O)(NCCOc1ccc2c(c1)C(C1(c3ccc(Cl)cc3)CCC1)NCC2)c1ccc(CCCF)cc1` (centres unmarked) [Example 114, N-[2-({1-[1-(4-Chlorophenyl)cyclobutyl]-1,2,3,4-tetrahydroisoquinolin-7-yl}oxy)ethyl]-4-(3-fluoropropyl)benzenesulfonamide hydrochloride], the Ki is at most 1000 nM. With `O=S(=O)(Nc1ccc(Oc2ccc3c(c2)C(C2(c4ccc(Cl)cc4)CCC2)NCC3)cc1)c1cccs1` (centres unmarked) [Example 115, N-[4-({1-[1-(4-Chlorophenyl)cyclobutyl]-1,2,3,4-tetrahydroisoquinolin-7-yl}oxy)phenyl]thiophene-2-sulfonamide hydrochloride], the Ki was at most 1000 nM. Under `CCCS(=O)(=O)Nc1ccc(Oc2ccc3c(c2)C(C2(c4ccc(Cl)cc4)CCC2)NCC3)nc1` (centres unmarked) [Example 119, N-[6-({1-[1-(4-Chlorophenyl)cyclobutyl]-1,2,3,4-tetrahydroisoquinolin-7-yl}oxy)pyridin-3-yl]propane-1-sulfonamide dihydrochloride] stands at most 10000 nM; under `CCCS(=O)(=O)Oc1ccc2c(c1)C(C1(c3cccc(F)c3)CCC1)NCC2` (centres unmarked) [Example 120, 1-[1-(3-Fluorophenyl)cyclobutyl]-1,2,3,4-tetrahydroisoquinolin-7-yl propane-1-sulfonate hydrochloride], at most 10000 nM; under `O=S(=O)(Nc1ccccc1Oc1ccc2c(c1)C(C1(c3ccc(Cl)cc3)CCC1)NCC2)c1cccnc1` (centres unmarked) [Example 122, N-[2-({1-[1-(4-Chlorophenyl)cyclobutyl]-1,2,3,4-tetrahydroisoquinolin-7-yl}oxy)phenyl]pyridine-3-sulfonamide dihydrochloride], at most 10000 nM.
